Columns and labels:
TRZAS = assay: Post-emergence herbicidal effect and crop plant compatibility, greenhouse pot test; assay type: in vivo, Triticum aestivum; conditions: for Post-emergence effect at 20 g/ha against TRZAS in %: one-leaf stage, rated visually after about 3 weeks vs untreated controls; for Post-emergence effect against TRZAS: visual rating about 3 weeks after treatment, crop plant
Outline: (§1)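 Greenhouse pot test: weeds and crops sown in sandy loam, sprayed post-emergence at one-leaf stage (2–3 weeks after sowing) with WP or EC formulations plus 0.5% additive at 600 l/ha water, rates 20–320 g/ha. Visual rating about 3 weeks later versus untreated controls (100% = dead, 0% = as control).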

GLXMA = assay: as above; assay type: in vivo, Glycine max; conditions: 20 g/ha, visual rating about 3 weeks after treatment, crop plant
Text: • ALOMY: Alopecurus myosuroides SETVI: Setaria viridis • AVEFA: Avena fatua POLCO: Fallopia convolvulus • AMARE: Amaranthus retroflexus ECHCG: Echinochloa crus-galli • LOLRJ: Lolium rigidum STEME: Stellaria media • VERPE: Veronica persica MATIN: Tripleurospermum inodorum • DIGSA: Digitaria sanguinalis ABUTH: Abutylon threophrasti • TRZAS: Triticum aestivum VIOTR: Viola tricolor • BRSNW: Brassica napus ZEAMX: Zea mays • PHBPU: Ipomoea purpurea GLXMA: Glycine max • ORYSA: Oryza sativa HORMU: Hordeum murinum
Seeds of monocotyledonous and dicotyledonous weeds and crop plants are placed in sandy loam in plastic or organic planting pots, covered with soil and cultivated in a greenhouse under controlled growth conditions. 2 to 3 weeks after sowing, the trial plants are treated at the one-leaf stage. The compounds of the invention, formulated in the form of wettable powders (WP) or as emulsion concentrates (EC), are then sprayed onto the green parts of the plants as aqueous suspension or emulsion with addition of 0.5% additive at a water application rate of 600 l/ha (converted). After the test plants have been kept in the greenhouse under optimum growth conditions for about 3 weeks, the activity of the preparations is rated visually in comparison to untreated controls. For example, 100% activity=the plants have died, 0% activity=like control plants.
Tables 20a to 38c below show the effects/crop compatibilities of selected compounds of the general formula (I) on various harmful plants at an application rate corresponding to 20 to 320 g/ha, which were obtained by the trial procedure specified above.

VERPE = assay: Post-emergence herbicidal effect, greenhouse pot test; assay type: in vivo, Veronica persica; conditions: 320 g/ha
Outline: (§2)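 Weeds sown in sandy loam, greenhouse-grown 2–3 weeks, then sprayed at one-leaf stage with WP or EC formulations in water plus 0.5% additive at 600 l/ha. Rates 20 to 320 g/ha. Visual rating after about 3 weeks versus untreated controls (100% = plants dead, 0% = like control).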

POLCO = assay: as above; assay type: in vivo, Fallopia convolvulus; conditions: 320 g/ha
Outline: as §2

PHBPU = assay: as above; assay type: in vivo, Ipomoea purpurea; conditions: 320 g/ha
Outline: as §2

AVEFA = assay: as above; assay type: in vivo, Avena fatua; conditions: 320 g/ha, visual rating about 3 weeks after treatment
Outline: as §2

ZEAMX = assay: Post-emergence herbicidal effect and crop plant compatibility, greenhouse pot test; assay type: in vivo, Zea mays; conditions: one-leaf stage, rated visually after about 3 weeks vs untreated controls
Outline: as §1

SETVI = assay: Post-emergence herbicidal effect, greenhouse pot test; assay type: in vivo, Setaria viridis; conditions: 320 g/ha
Outline: as §2

ECHCG = assay: as above; assay type: in vivo, Echinochloa crus-galli
Outline: as §2

COC(=O)C(OC)Oc1nn(-c2ccccc2F)c(-c2ccc(F)nc2)c1C(F)(F)C(F)(F)F (stereo not drawn) [Example I-60]
Post-emergence effect at 20 g/ha against TRZAS in % (TRZAS): 0% | Post-emergence effect against TRZAS (TRZAS; 80 g/ha): 0% | Post-emergence effect against GLXMA (GLXMA): 10% | Post-emergence effect against VERPE in % (VERPE): 80% | Post-emergence effect against POLCO in % (POLCO): 90% | Post-emergence effect against PHBPU in % (PHBPU): 90% | Post-emergence effect against AVEFA (AVEFA): 80% | Post-emergence effect at 20 g/ha against ZEAMX in % (ZEAMX): 0% | Post-emergence effect at 80 g/ha against ZEAMX in % (ZEAMX; 80 g/ha): 0%

COC(Oc1nn(-c2cccc(C)c2F)c(-c2ccnc(F)c2)c1Br)C(=O)O (stereo not drawn) [Example I-92]
Post-emergence effect at 20 g/ha against TRZAS in % (TRZAS): 0% | Post-emergence effect against TRZAS (TRZAS; 80 g/ha): 10% | Post-emergence effect against TRZAS (TRZAS; 320 g/ha): 20% | Post-emergence effect against GLXMA (GLXMA): 10% | Post-emergence effect against SETVI in % (SETVI): 80% | Post-emergence effect against ECHCG in % (ECHCG; 80 g/ha): 80% | Post-emergence effect against ECHCG in % (ECHCG; 320 g/ha): 90% | Post-emergence effect against PHBPU in % (PHBPU): 80% | Post-emergence effect at 20 g/ha against ZEAMX in % (ZEAMX): 20%

Reference: patent US20240391862A1, “(1,4,5-TRISUBSTITUTED-1H-PYRAZOL-3-YL)OXY-2-ALKOXY ALKYL ACIDS AND THEIR DERIVATIVES, THEIR SALTS AND THEIR USE AS HERBICIDAL AGENTS” (Bayer AKtiengesellschaft, priority 2021, published 2024)
